# Experimental data published in publication PMC7804859, “A metabolically stable apelin-17 analog decreases AVP-induced antidiuresis and improves hyponatremia” (Nature Communications, 2021).
# “And” between values parts separate entries of the source, which are not always exact repeats. Identical values can stand only once.
# Legend:
# [1] = in plasma; cited from earlier work
# [2] = test system: normonatremic Sprague-Dawley rats; test: Effects of s.c. administration on metabolic parameters in normonatremic rats; assay type: in vivo, rat
# [3] = test system: hyponatremic rats (AVP 30 ng/h); test: Effects of LIT01-196 and tolvaptan in rat model of AVP-induced hyponatremia; assay type: in vivo
# Description: Meloxicam was administered postoperatively for analgesia. Animals were then individually housed in metabolic cages (Techniplast), and given a semi-liquid diet consisting of 25 ml Gel-Diet Breeding-10 (SAFE, Augy, France) mixed with 25 ml tap water per day, with water available ad libitum. Animal weight, water, and food consumption were measured daily. Urine was collected daily, urinary electrolytes (Na^+, K^+, Cl^−) were determined with an ISE 3000 (Caretium Medical Instruments, Shenzhen, China) and urinary osmolality was measured with a Cryobasic 1 osmometer (Astori Tecnica, Poncarale, Italy). Blood samples were collected on ice, before implantation of the osmotic minipump, and before drug administration, under isoflurane anesthesia, from the tail vein (4 µl of lithium heparinate (1600 IU/ml) for 400 µl of blood). The blood samples were immediately centrifuged (4 °C, 2600 × g, 20 min), and plasma electrolyte (Na^+, K^+, Cl^−) levels were quantified with an ISE 3000. On the last day of the experiment, blood was also collected on ice by intracardiac puncture. This blood sample was collected into lithium heparinate under isoflurane anesthesia; plasma electrolyte levels were determined as described above and the animals were immediately killed by carbon monoxide inhalation.
# control rats = test: Plasma AVP and apelin-IR levels in control rats (RIA); assay type: in vivo, rat; design: Apelin / AVP: unit not given here
# Description: 187 Apelin radioimmunoassay
# 189 until use for apelin RIA.
# The supernatants were collected and
# The samples were dried and dissolved in
# 201 centrifuged (17000 x g, 4°C, 20 min). The supernatant (4 ml) was collected, and mixed with
# The columns were then treated as described in
# Samples (0.1ml) w ere mixed with 125I-
# 212 used this radioligand instead of [Glp65, Nle75, Tyr77] [125I]-apelin13 since the substitution of
# 214 derivatives as described previously by 3,4.
# 216 incubated for 10 min at room temperature.
# This antiserum identified the apelin present in the
# Most of the apelin in human plasma was
# (§1) 252 TechMedILL platfor m (Illkirch) reviewed and approved by the agriculture ministry regulating
# (§2) 256 Male Sprague-Dawley rats were killed by decapitation, and trunk blood was collected on ice
# (§3) 257 (into 50 µl of 0.3M EDTA (pH 7.4) per 1 ml of blood). Samples were centrifuged (2,600 x g,
# (§4) 258 4°C, 20 min), and the resulting plasma was split into 500 µl aliquots, to which we added 168
# (§5) 259 µl of 3N HCl before storage at -80°C. The AVP RIA was performed as previously described
# (§6) 260 5, using a specific AVP-[Arg8] antibody (final dilution, 1/4.5) and [125I]-(Tyr2Arg8)-AVP
# 261 (2200 Ci/mmol, Perkin-Elmer, Billerica, MA; 15000 dpm) as a tracer. […]
# [4] = test system: rat outer medullary collecting ducts (OMCDs); test: dDAVP-induced cAMP production in microdissected rat outer medullary collecting ducts; assay type: cell-based
# Description: The left kidney of male rats was prepared for nephron microdissection, as previously described[51]. Pieces of OMCDs were isolated under a stereomicroscope.
# Then cells were treated with 10
# 180 37°C. Then the media was removed and 100 µl of lysis buffer (Cisbio Bioassays, Codolet,
# 181 France) was added to Transwell filter and plate was incubated at 20°C for 2 hours. Cell
# 183 384-well plates (Perkin Elmer) according to manufacturer’s instructions (Cisbio Bioassays,
# 184 Codolet, France). Cyclic AMP levels were measured in microdissected OMCDs by the same
# Results are expressed in femtomoles of cAMP produced
# 186 per mm tubular length and per 10 min incubation time at 37°C.
# [5] = Plasma protein binding (Rapid Equilibrium Dialysis); assay type: in vitro ADME; conditions: RED plate, 12 kDa cutoff, plasma vs phosphate buffer, 10 µmol/l, 4 hours, 37 °C, 600 rpm, UHPLC-MS/MS; value at equilibrium
# Description: as §1, §2, §3, §4, §5, §6
# 261 (2200 Ci/mmol, Perkin-Elmer, Billerica, MA; 15000 dpm) as a tracer.
# 263 Plasma protein binding of LIT01-196 was determined using Thermo Scientific Single-Use
# 264 RED Plate (Rapid Equilibrium Dialysis) composed of dialysis inserts with a me mbrane cutoff
# 265 of 12 kDa. Compound (10 µmol/l) was spiked in plasma chamber (donor side); phosphate
# 266 buffer was placed in the receiving side. The plate was rotated at 37 °C on an orbital shaker at
# 267 600 rpm for 4 hours. Peptide concentration was determined for the plasma sample that
# 268 represents the bound fraction, the peptide concentration was deter mined for the buffer sample
# 269 that represents the free fraction. The samples were analyzed by UHPLC-MS/MS (LC-MS […]
# 274 proteins. Percentages of bound and free peptides were calculated as follows: % free peptide = […]
# [6] = 900 nmol/kg SC (tolvaptan 0.4.SC [sic]), normonatremic rats, single animals
smiles,measurement,setting,value
CSCC[C@H](NC(=O)[C@@H]1CCCN1C(=O)CNC(=O)[C@H](CCCCN)NC(=O)[C@H](Cc1c[nH]cn1)NC(=O)[C@H](CO)NC(=O)[C@H](CC(C)C)NC(=O)[C@H](CCCNC(=N)N)NC(=O)[C@@H]1CCCN1C(=O)[C@H](CCCNC(=N)N)NC(=O)[C@H](CCC(N)=O)NC(=O)[C@H](CCCNC(=N)N)NC(=O)[C@H](CCCNC(=N)N)NC(=O)[C@H](Cc1ccccc1)NC(=O)[C@H](CCCCN)NC(=O)CCC(F)(F)C(F)(F)C(F)(F)C(F)(F)C(F)(F)C(F)(F)C(F)(F)C(F)(F)F)C(=O)N1CCC[C@H]1C(=O)N[C@@H](Cc1ccccc1)C(=O)O [LIT01-196],plasma half-life,[1],> 24 h
same,Urine osmolality (3 hours),[2]; [6],1384 and 748 and 940 and 740 and 756 and 732
same,Urine osmolality (6 hours),[2]; [6],356 and 1028 and 440 and 1112 and 752 and 680
same,Urine osmolality (24 hours),[2]; [6],1095 and 2308 and 2437 and 1605 and 969 and 1304 and 1184 and 540 and 808 and 632 and 904 and 972 and 1020 and 1112 and 960 and 572 and 760 and 772 and 928 and 708 and 1220 and 1508
same,body weight change (weight loss),"[2]; 900 nmol/kg s.c., 24 h",−1.8%
same,increase in water intake,"[2]; 900 nmol/kg s.c., 24 h",11%
same,increase in water intake to food intake ratio,"[2]; 900 nmol/kg s.c., 24 h",50%
same,increase in free water excretion fraction,"[2]; 900 nmol/kg s.c., 24 h, n = 6",86%
same,decrease in food (normal chow) intake,"[2]; 900 nmol/kg s.c., 24 h, non-significant",20%
same,increase in 24-h urine output relative to saline,"[2]; 900 nmol/kg s.c., normonatremic rats",79%
same,decrease in urine osmolality,"[2]; 900 nmol/kg s.c., normonatremic rats, 24 h",52%
same,Water excretion fraction,"[2]; LIT01-196 900 nmol/kg SC, individual animals (Fig. S4C source data)",0.8192 and 1.335 and 0.9524 and 0.95 and 0.8692 and 1.016
same,Sodium excretion fraction,"[2]; LIT01-196 900 nmol/kg SC, individual animals (Fig. S4D source data)",0.6321 and 0.5196 and 0.512 and 0.526 and 0.4023 and 0.292
same,Sodium excretion fraction,"[2]; LIT01-196 900 nmol/kg, tolvaptan 6700 nmol/kg s.c., 24 h",not changed
same,Water to food ratio,"[2]; normonatremic rats, 900 nmol/kg SC, individual animal values (source data Fig. 4L)",1.9011 and 2.746 and 2.674 and 1.755 and 1.9235 and 1.556 and 1.545
same,increase in urine output 24 h after s.c. administration,"[3]; 180 nmol/kg s.c., rats receiving 30 ng/h AVP",1.5 ± 2.0 ml/24 h/100 g
same,"urine osmolality, lower than AVP + saline group",[3]; 900 nmol/kg s.c. on days 0 and 1,58%
same,"urine output, higher than AVP + saline group","[3]; 900 nmol/kg s.c. on days 0 and 1, average days 1 to 2, n = 9",185%
same,plasma sodium concentration on day 2,"[3]; 900 nmol/kg s.c. on days 0 and 1, saline 100 ± 2",110 ± 5 mmol/L
same,plasma sodium concentration on day 1,"[3]; 900 nmol/kg s.c., 24 h after first administration, saline 100 ± 2",109 ± 5 mmol/L
same,body weight change from baseline versus saline,"[3]; 900 nmol/kg s.c., AVP-treated animals",similar
same,"water consumption (including water in diet), higher than AVP + saline group","[3]; 900 nmol/kg s.c., average days 1 to 2",177%
same,food consumption,"[3]; 900 nmol/kg s.c., hyponatremic rats",significant increase
same,increase in urine output 24 h after s.c. administration,"[3]; 900 nmol/kg s.c., rats receiving 30 ng/h AVP and liquid diet",11.7 ± 2.3 ml/24 h/100 g
same,increase in urine output 24 h after s.c. administration,"[3]; 2400 nmol/kg s.c., rats receiving 30 ng/h AVP",9.2 ± 4.1 ml/24 h/100 g
same,"plasma apelin-IR levels, higher than in control rats",control rats; 3 h after 900 nmol/kg s.c.,185%
same,"plasma apelin/AVP ratio, higher than in control rats",control rats; 3 h after 900 nmol/kg s.c.,105%
same,"plasma AVP levels, higher than in animals receiving saline","control rats; 3 h after s.c., tolvaptan 6700 nmol/kg, LIT01-196 900 nmol/kg",37%
same,AVP,"control rats; plasma AVP, LIT01-196 900 nmol/kg SC, individual animals (Fig. S4F source data)",22.8083 and 24.884 and 19.0278 and 19.6598 and 20.1271 and 24.6505 and 19.9264
same,Apelin,"control rats; plasma apelin-IR, LIT01-196 900 nmol/kg SC, individual animals (Fig. S4E source data)",1622 and 1536 and 1658 and 938 and 943 and 1033 and 1679
same,apelinAVPratio,"control rats; plasma apelin/AVP ratio, LIT01-196 900 nmol/kg SC, individual animals (Fig. S4G source data)",71.1145 and 61.7264 and 87.1356 and 47.7116 and 46.8522 and 41.9059 and 84.2603
same,inhibition of dDAVP-induced cAMP production in OMCDs,"[4]; co-application with dDAVP 0.1 nmol/l, increasing concentrations 50 nmol/l to 50 µmol/l",41%
same,"cAMP production, value (Fig 2E)","[4]; peptide 5.10-5M, experiment 1",50
same,"cAMP production, value (Fig 2E)","[4]; peptide 5.10-5M, experiment 2",47
same,"cAMP production, value (Fig 2E)","[4]; peptide 5.10-5M, experiment 3",56
same,"cAMP production, value (Fig 2E)","[4]; peptide 5.10-5M, experiment 4",50
same,"cAMP production, value (Fig 2E)","[4]; peptide 5.10-5M, experiment 5",48
same,"cAMP production, value (Fig 2E)","[4]; peptide 5.10-5M, experiment 6",49
same,"cAMP production, value (Fig 2E)","[4]; peptide 5.10-7M, experiment 1",55
same,"cAMP production, value (Fig 2E)","[4]; peptide 5.10-7M, experiment 2",58
same,"cAMP production, value (Fig 2E)","[4]; peptide 5.10-7M, experiment 3",52
same,"cAMP production, value (Fig 2E)","[4]; peptide 5.10-7M, experiment 4",54
same,"cAMP production, value (Fig 2E)","[4]; peptide 5.10-7M, experiment 5",56
same,"cAMP production, value (Fig 2E)","[4]; peptide 5.10-7M, experiment 6",53
same,"cAMP production, value (Fig 2E)","[4]; peptide 5.10-8M, experiment 1",85
same,"cAMP production, value (Fig 2E)","[4]; peptide 5.10-8M, experiment 2",87
same,"cAMP production, value (Fig 2E)","[4]; peptide 5.10-8M, experiment 3",90
same,"cAMP production, value (Fig 2E)","[4]; peptide 5.10-8M, experiment 4",83
same,"cAMP production, value (Fig 2E)","[4]; peptide 5.10-8M, experiment 5",88
same,"cAMP production, value (Fig 2E)","[4]; peptide 5.10-8M, experiment 6",81
same,bound fraction to plasma proteins,[5],69 ± 7%
